Measured values: US4684664A, “Derivatives of β-(4-isocyano-1,2,3,4-diepoxycyclopentyl) acrylic acid” (Kureha Kagaku Kogyo Kabushiki Kaisha, priority 1984, dated 1987)
≈ marks a conversion by molar mass, not a printed value.

What was measured:
Type in all cases: cell-based
[1] = system: Staphylococcus aureus FDA 209PJc-1; assay: Antibacterial activity, agar-dilution MIC, organism No. 1; settings: Staphylococcus aureus, FDA209PJC1; Organism No. 1, bouillon-agar; read-out: Minimum Inhibitory Concentration
Description: (§1) Agar-dilution method was used for determination of the antibacterial activity and antifungal activity while using bouillon-agar culture medium, and the minimum inhibitory concentration of the specimen was expressed by μg/ml of the culture medium.

[2] = system: Staphylococcus aureus Terajima; assay: Antibacterial activity, agar-dilution MIC, organism No. 2; settings: Staphylococcus aureus; Organism No. 2, bouillon-agar; read-out: Minimum Inhibitory Concentration
Description: as §1

[3] = system: Staphylococcus aureus MS 353; assay: Antibacterial activity, agar-dilution MIC, organism No. 3; settings: Staphylococcus aureus, MS353; Organism No. 3, bouillon-agar; read-out: Minimum Inhibitory Concentration
Description: as §1

[4] = system: Streptococcus pyogenes Cook; assay: Antibacterial activity, agar-dilution MIC, organism No. 4; settings: Streptococcus pyogenes; Organism No. 4, bouillon-agar; read-out: Minimum Inhibitory Concentration
Description: as §1

[5] = system: Escherichia coli NIHJ-JC-2; assay: Antibacterial activity, agar-dilution MIC, organism No. 5; settings: Escherichia coli, NIHJJC2; Organism No. 5, bouillon-agar; read-out: Minimum Inhibitory Concentration
Description: as §1

[6] = system: Escherichia coli K12 C600 IAM 1264; assay: Antibacterial activity, agar-dilution MIC, organism No. 6; settings: Escherichia coli, IAM1264; Organism No. 6, bouillon-agar; read-out: Minimum Inhibitory Concentration
Description: as §1

[7] = system: Klebsiella pneumoniae PCI-602; assay: Antibacterial activity, agar-dilution MIC, organism No. 7; settings: Klebsiella pneumoniae, PCI602; Organism No. 7, bouillon-agar; read-out: Minimum Inhibitory Concentration
Description: as §1

[8] = system: Salmonella typhimurium IID 971; assay: Antibacterial activity, agar-dilution MIC, organism No. 8; settings: Salmonella enterica; Organism No. 8, bouillon-agar; read-out: Minimum Inhibitory Concentration
Description: as §1

[9] = system: Salmonella typhi 901; assay: Antibacterial activity, agar-dilution MIC, organism No. 9; settings: Salmonella enterica, TYPHI, read-out: Minimum Inhibitory Concentration
Description: as §1

[10] = system: Salmonella paratyphi-A 1015; assay: Antibacterial activity, agar-dilution MIC, organism No. 10; settings: Salmonella enterica, PARATYPHI, read-out: Minimum Inhibitory Concentration
Description: as §1

[11] = system: Salmonella shottmuelleri 8006; assay: Antibacterial activity, agar-dilution MIC, organism No. 11; settings: Salmonella, 8006; Organism No. 11, bouillon-agar; read-out: Minimum Inhibitory Concentration
Description: as §1

[12] = system: Salmonella enteritidis G 14; assay: Antibacterial activity, agar-dilution MIC, organism No. 12; settings: Salmonella enterica, ENTERITIDIS; Organism No. 12, bouillon-agar; read-out: Minimum Inhibitory Concentration
Description: as §1

[13] = system: Bacillus subtilis ATCC 6633; assay: Antibacterial activity, agar-dilution MIC, organism No. 14; settings: Bacillus subtilis, ATCC6633; Organism No. 14, bouillon-agar; read-out: Minimum Inhibitory Concentration
Description: as §1

[14] = system: Pseudomonas aeruginosa IFO 3445; assay: Antibacterial activity, agar-dilution MIC, organism No. 15; settings: Pseudomonas aeruginosa, IFO3445; Organism No. 15, bouillon-agar; read-out: Minimum Inhibitory Concentration
Description: as §1

[15] = system: Pseudomonas aeruginosa NCTC 10490; assay: Antibacterial activity, agar-dilution MIC, organism No. 16; settings: Pseudomonas aeruginosa, NCTC10490; Organism No. 16, bouillon-agar; read-out: Minimum Inhibitory Concentration
Description: as §1

[16] = system: Pseudomonas aeruginosa PAO 1; assay: Antibacterial activity, agar-dilution MIC, organism No. 17; settings: Pseudomonas aeruginosa, PAO1; Organism No. 17, bouillon-agar; read-out: Minimum Inhibitory Concentration
Description: as §1

[17] = system: Proteus morganii IFO 3848; assay: Antibacterial activity, agar-dilution MIC, organism No. 18; settings: Morganella morganii, IFO3848; Organism No. 18, bouillon-agar; read-out: Minimum Inhibitory Concentration
Description: as §1

[18] = system: Proteus mirabilis IFO 3849; assay: Antibacterial activity, agar-dilution MIC, organism No. 19; settings: Proteus mirabilis, IFO3849; Organism No. 19, bouillon-agar; read-out: Minimum Inhibitory Concentration
Description: as §1

[19] = system: Proteus vulgaris OX-19; assay: Antibacterial activity, agar-dilution MIC, organism No. 20; settings: Proteus vulgaris, OX19; Organism No. 20, bouillon-agar; read-out: Minimum Inhibitory Concentration
Description: as §1

[20] = system: Proteus vulgaris HX-19; assay: Antibacterial activity, agar-dilution MIC, organism No. 21; settings: Proteus vulgaris, HX19; Organism No. 21, bouillon-agar; read-out: Minimum Inhibitory Concentration
Description: as §1

[21] = system: Proteus rettgeri IFO 3850; assay: Antibacterial activity, agar-dilution MIC, organism No. 22; settings: Providencia rettgeri, IFO3850; Organism No. 22, bouillon-agar; read-out: Minimum Inhibitory Concentration
Description: as §1

[22] = system: Enterobacter aerogenes ATCC 13048; assay: Antibacterial activity, agar-dilution MIC, organism No. 23; settings: Klebsiella aerogenes, ATCC13048; Organism No. 23, bouillon-agar; read-out: Minimum Inhibitory Concentration
Description: as §1

[23] = system: Enterobacter cloacae 963; assay: Antibacterial activity, agar-dilution MIC, organism No. 24; settings: Enterobacter cloacae, 963; Organism No. 24, bouillon-agar; read-out: Minimum Inhibitory Concentration
Description: as §1

[24] = system: Micrococcus luteus ATCC 9341; assay: Antibacterial activity, agar-dilution MIC, organism No. 25; settings: Micrococcus luteus, ATCC9341; Organism No. 25, bouillon-agar; read-out: Minimum Inhibitory Concentration
Description: as §1

[25] = system: Streptococcus pyogenes IFO 3340; assay: Antibacterial activity, agar-dilution MIC, organism No. 26; settings: Streptococcus pyogenes, IFO3340; Organism No. 26, bouillon-agar; read-out: Minimum Inhibitory Concentration
Description: as §1

[26] = system: Streptococcus faecium IFO 3826; assay: Antibacterial activity, agar-dilution MIC, organism No. 27; settings: Enterococcus faecium, IFO3826; Organism No. 27, bouillon-agar; read-out: Minimum Inhibitory Concentration
Description: as §1

[27] = system: Mycoplasma pneumoniae IID817; assay: Antimycoplasmal activity, MIC by phenol red colour change, organism No. 28; settings: Mycoplasma, IID817; Organism No. 28, PPLO broth + 1% glucose, 37° C.; read-out: Minimum Inhibitory Concentration (MIC)
Experimental: Mycoplasma pneumoniae IID817 was used as the test microorganism in a culture medium prepared by adding 1% of glucose to "PPLO broth (manufactured by Difco Co.) liquid culture medium" at 37° C. with phenol red as an indicator, thereby culturing the test microorganism.

[28] = system: Candida albicans IAM 4905; assay: Antifungal activity, agar-dilution MIC, organism No. 29; settings: Candida albicans, IAM4905; Organism No. 29, bouillon-agar; read-out: Minimum Inhibitory Concentration
Description: as §1

[29] = system: Aspergillus niger IFO 6342; assay: Antifungal activity, agar-dilution MIC, organism No. 30; settings: Aspergillus niger, IFO6342; Organism No. 30, bouillon-agar; read-out: Minimum Inhibitory Concentration
Description: as §1

Compound	MIC [1] [µg/mL]	MIC [2] [µg/mL]	MIC [3] [µg/mL]	MIC [4] [µg/mL]	MIC [5] [µg/mL]	MIC [6] [µg/mL]	MIC [7] [µg/mL]	MIC [8] [µg/mL]	MIC [9] [µg/mL]	MIC [10] [µg/mL]	MIC [11] [µg/mL]	MIC [12] [µg/mL]	MIC [13] [µg/mL]	MIC [14] [µg/mL]	MIC [15] [µg/mL]	MIC [16] [µg/mL]	MIC [17] [µg/mL]	MIC [18] [µg/mL]	MIC [19] [µg/mL]	MIC [20] [µg/mL]	further results
[C-]#[N+]C12CC3(/C=C/C(=O)Nc4cccc(Cl)c4)OC3C1O2 (centres unmarked) [compound 41]	0.2 (≈ 0.661 µM)	0.39 (≈ 1.29 µM)	0.1 (≈ 0.33 µM)	> 200	> 200	200 (≈ 661 µM)	< 0.05	3.13 (≈ 10.3 µM)	3.13 (≈ 10.3 µM)	0.78 (≈ 2.58 µM)	0.2 (≈ 0.661 µM)	3.13 (≈ 10.3 µM)	1.56 (≈ 5.15 µM)	> 200	> 200	> 200	0.1 (≈ 0.33 µM)	> 200	0.78 (≈ 2.58 µM)	< 0.05	MIC [21]: 3.13 µg/mL (≈ 10.3 µM); MIC [22]: > 200 µg/mL; MIC [23]: 50 µg/mL (≈ 165 µM); MIC [24]: < 0.05 µg/mL; MIC [25]: 0.39 µg/mL (≈ 1.29 µM); MIC [26]: 3.13 µg/mL (≈ 10.3 µM); MIC [27]: < 0.2 µg/mL; MIC [28]: 0.8 µg/mL (≈ 2.64 µM); MIC [29]: 1.56 µg/mL (≈ 5.15 µM)
[C-]#[N+]C12CC3(/C=C/C(=O)Nc4cccc(C)c4)OC3C1O2 (centres unmarked) [compound 38]	< 0.05	0.1 (≈ 0.354 µM)	< 0.05	6.25 (≈ 22.1 µM)	12.5 (≈ 44.3 µM)	12.5 (≈ 44.3 µM)	< 0.05	6.25 (≈ 22.1 µM)	1.56 (≈ 5.53 µM)	< 0.05	< 0.05	1.56 (≈ 5.53 µM)	3.13 (≈ 11.1 µM)	> 200	> 200	> 200	12.5 (≈ 44.3 µM)	> 200	0.05 (≈ 0.177 µM)	0.05 (≈ 0.177 µM)	MIC [21]: 3.13 µg/mL (≈ 11.1 µM); MIC [22]: > 200 µg/mL; MIC [23]: > 200 µg/mL; MIC [24]: < 0.05 µg/mL; MIC [25]: 0.39 µg/mL (≈ 1.38 µM); MIC [26]: 12.5 µg/mL (≈ 44.3 µM); MIC [27]: < 0.2 µg/mL; MIC [28]: 0.78 µg/mL (≈ 2.76 µM); MIC [29]: 1.56 µg/mL (≈ 5.53 µM)
[C-]#[N+]C12CC3(/C=C/C(=O)N[C@@H](C(=O)OCc4ccccc4)C(C)C)OC3C1O2 (some centres unmarked) [compound 30]	> 200	> 200	> 200	> 200	> 200	> 200	> 200	> 200	> 200	> 200	> 200	> 200	> 200	> 200	> 200	> 200	> 200	> 200	> 200	> 200	MIC [21]: > 200 µg/mL; MIC [22]: > 200 µg/mL; MIC [23]: > 200 µg/mL; MIC [24]: 1.56 µg/mL (≈ 4.08 µM); MIC [25]: > 200 µg/mL; MIC [26]: > 200 µg/mL; MIC [27]: > 100 µg/mL; MIC [28]: > 100 µg/mL; MIC [29]: > 100 µg/mL
[C-]#[N+]C12CC3(/C=C/C(=O)N[C@@H](CC(=O)OCc4ccccc4)C(=O)OCc4ccccc4)OC3C1O2 (some centres unmarked) [Compound No. 29]	< 1.56	6.25 (≈ 12.8 µM)	3.13 (≈ 6.41 µM)	> 200	> 200	> 200	> 200	> 200	> 200	> 200	> 200	> 200	25 (≈ 51.2 µM)	> 200	> 200	> 200	> 200	> 200	> 200	25 (≈ 51.2 µM)	MIC [21]: > 200 µg/mL; MIC [22]: > 200 µg/mL; MIC [23]: > 200 µg/mL; MIC [24]: < 1.56 µg/mL; MIC [25]: > 200 µg/mL; MIC [26]: 6.25 µg/mL (≈ 12.8 µM); MIC [27]: > 100 µg/mL; MIC [28]: > 100 µg/mL; MIC [29]: > 100 µg/mL
